Earlier results in patent US7705000B2, “Oral suspension comprising meloxicam” (Janssen Pharmaceutica N.V., priority 2004, dated 2010).

Conditions: at a pH of 4

solubility of meloxicam: 0.5 µg/mL
Compound: Cc1cnc(NC(=O)C2=C(O)c3ccccc3S(=O)(=O)N2C)s1 [meloxicam, 4-hydroxy-2-methyl-N-(5-methyl-2-thiazolyl)-2H-1,2-benzo-thiazine-3-carboxamide-1,1-dioxide]
